Test results published in patent US20020013295A1, “Naaladase inhibitors for treating amyotrophic lateral sclerosis” (priority 2000, published 2002).
Residues, ends and D or L forms follow the SMILES beside them.

How the values were obtained:
transgenic SOD mice = assay: Effect of NAALADase inhibitor on onset of clinical disease, transgenic mice model of FALS; assay type: in vivo; conditions: for Disease onset for compound treated mice: 50 mg/kg, from one month old
Procedure: The effect of NAALADase inhibitors on the onset of ALS was tested using the transgenic mice model of familial amyotrophic lateral sclerosis (FALS), which is detailed in Gurney, M., Annals of Neurology (1996) 39:147-157, and otherwise well known in the art. One month old transgenic SOD mice were treated with daily intraperitoneal injections of a vehicle (50 mM HEPES-buffered saline) or a NAALADase inhibitor (50 mg/kg 2-[[(2,3,4,5,6-pentafluorobenzyl)hydroxyphosphinyl]methyl]-pentanedioic acid (“Compound A” )). Clinical symptoms of the mice were monitored daily. The onset of clinical disease was scored by examining each mouse for its shaking of limbs when suspended in the air by its tail, cross spread of spinal reflexes, hindlimb paralysis, body weight and wheel running activity.

NAALADase = NAALADase (Rattus norvegicus, UniProt P70627); conditions: NAAG as substrate of NAALADase; cited from earlier work
Chain of NAALADase (P70627 whole entry): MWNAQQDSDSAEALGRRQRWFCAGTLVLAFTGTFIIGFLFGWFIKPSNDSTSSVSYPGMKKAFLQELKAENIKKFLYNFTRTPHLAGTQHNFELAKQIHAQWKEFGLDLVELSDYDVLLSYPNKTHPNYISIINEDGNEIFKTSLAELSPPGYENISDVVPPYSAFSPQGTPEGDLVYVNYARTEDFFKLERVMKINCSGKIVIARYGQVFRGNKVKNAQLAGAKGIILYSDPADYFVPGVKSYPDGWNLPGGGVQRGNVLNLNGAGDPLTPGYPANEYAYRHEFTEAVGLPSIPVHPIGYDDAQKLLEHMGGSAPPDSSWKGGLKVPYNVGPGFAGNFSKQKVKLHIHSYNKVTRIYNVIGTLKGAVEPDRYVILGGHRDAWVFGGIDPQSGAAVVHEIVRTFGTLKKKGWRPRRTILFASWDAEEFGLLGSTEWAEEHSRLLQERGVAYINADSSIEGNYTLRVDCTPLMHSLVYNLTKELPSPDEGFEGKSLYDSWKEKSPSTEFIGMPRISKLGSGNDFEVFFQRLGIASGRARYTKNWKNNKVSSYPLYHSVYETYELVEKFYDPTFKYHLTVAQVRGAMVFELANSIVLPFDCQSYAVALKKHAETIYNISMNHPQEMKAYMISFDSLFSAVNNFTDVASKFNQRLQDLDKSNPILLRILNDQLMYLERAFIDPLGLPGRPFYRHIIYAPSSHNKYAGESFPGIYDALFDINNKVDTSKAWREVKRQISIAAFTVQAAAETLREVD

| SMILES | Difference in disease onset, compound treated vs vehicle treated mice (transgenic SOD mice; Study 1) | Disease onset for compound treated mice (transgenic SOD mice; Study 1, daily intraperitoneal injections) | Difference in disease onset, compound treated vs vehicle treated mice (transgenic SOD mice; Study 2) | Disease onset for compound treated mice (transgenic SOD mice; Study 2, daily intraperitoneal injections) | Km (NAALADase) [µM] |
| --- | --- | --- | --- | --- | --- |
| O=C(O)CCC(CCCS)C(=O)O (centres unmarked) [Compound B, 2-(3-sulfanylpropyl)pentanedioic acid] | 32 | 221 days of age | 25 | 166 days of age |  |
| CC(=O)N[C@@H](CC(=O)O)C(=O)N[C@@H](CCC(=O)O)C(=O)O [NAAG, N-acetyl-aspartyl-glutamate] (Ac-Asp-Glu-OH) |  |  |  |  | 0.54 |
